In brackets after ≈: the same amount, converted by molar mass.

This series in a line: physchem. The conditions noted are these: 20 °C, water. In kind it is physicochemical. The protocol: Compound A is 2-ethoxy-1-{[2′-(5-oxo-4,5-dihydro-1,2,4-oxadiazol-3-yl)biphenyl-4-yl]methyl}-1H-benzimidazole-7-carboxylic acid (melting point: 191° C., solubility in water at 20° C. of about 0.006 g/L). In the following Examples and Reference Examples, the Japanese Pharmacopoeia 14th Edition or Japanese Pharmaceutical Excipients 2003 compatible products were used as the preparation additives. Of the preparation additives, while magnesium stearate is also the Japanese Pharmacopoeia 14th Edition compatible product, like other preparation additives, it particularly has a stearic acid content ratio of not less than about 90% (Taihei Chemical Industrial Co., Ltd.).

The solubility is the concentration that dissolves in the medium under given conditions. The low end stands for little dissolved substance, the high end for much dissolved substance. As to `CCOc1nc2cccc(C(=O)O)c2n1Cc1ccc(-c2ccccc2-c2noc(=O)[nH]2)cc1` [Compound A, 2-ethoxy-1-{[2′-(5-oxo-4,5-dihydro-1,2,4-oxadiazol-3-yl)biphenyl-4-yl]methyl}-1H-benzimidazole-7-carboxylic acid], the solubility was ~6 µg/mL (≈ 13.1 µM).

The record behind these values is US20100016382A1, “PHARMACEUTICAL COMPOSITION” (TAKEDA PHARMACEUTICAL COMPANY LIMITED, priority 2006, published 2010).
